Test results as given in PMC8445441, “Elucidating the mechanism by which synthetic helper peptides sensitize Pseudomonas aeruginosa to multiple antibiotics” (PLoS Pathogens, 2021).
Where two headings read alike, the source gives them in different places.

Tests used:
P. aeruginosa AUMC-Pa-1 = settings: strain AUMC-Pa-1; antibiotic + D-11 (MICb/MICbc 128/4)
How it was run: (§1)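 Two-fold serial dilutions in MHB received an equal volume of bacteria (suspension about 1 × 10^6 CFU/mL). Plates were held 18 h at 37 °C, then read visually for growth. Triplicate, CLSI-based.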

P. aeruginosa AUMC-Pa-2 = settings: strain AUMC-Pa-2; antibiotic + D-11 (MICb/MICbc 64/4)
How it was run: as §1

P. aeruginosa ATCC27853 = test: microbe, parasite or virus in culture; parameters: MICa: MIC of the antibiotic / MICac: MIC of the antibiotic in the combination: unit not given beside the values
How it was run: as §1

P. aeruginosa PA14 = test: microbe, parasite or virus in culture; parameters: MICa: MIC of the antibiotic / MICac: MIC of the antibiotic in the combination: unit not given beside the values
How it was run: as §1

P. aeruginosa NR-31041 = test: microbe, parasite or virus in culture; parameters: MICa: MIC of the antibiotic / MICac: MIC of the antibiotic in the combination: unit not given beside the values
How it was run: as §1

P. aeruginosa PAK = test: microbe, parasite or virus in culture; parameters: MICa: MIC of the antibiotic / MICac: MIC of the antibiotic in the combination: unit not given beside the values
How it was run: as §1

P. aeruginosa NR-31040 = test: microbe, parasite or virus in culture; parameters: MICa: MIC of the antibiotic / MICac: MIC of the antibiotic in the combination: unit not given beside the values; settings: strain NR-31040
How it was run: as §1

P. aeruginosa AUMC-Pa-3 = test: microbe, parasite or virus in culture
How it was run: as §1

P. aeruginosa AUMC-Pa-6 = test: microbe, parasite or virus in culture; settings: strain AUMC-Pa-6
How it was run: as §1

P. aeruginosa AUMC-Pa-4 = test: microbe, parasite or virus in culture
How it was run: as §1

P. aeruginosa PAO1 = test: microbe, parasite or virus in culture
How it was run: as §1

P. aeruginosa AUMC-Pa-5 = test: microbe, parasite or virus in culture; settings: strain AUMC-Pa-5
How it was run: as §1

P. aeruginosa HM-214 = settings: strain HM-214; antibiotic + D-11 (MICb/MICbc 128/4)
How it was run: as §1

[1] = test system: clinical P. aeruginosa isolates; test: microbe, parasite or virus in culture; settings: Pseudomonas aeruginosa, 18 h
How it was run: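 Broth microdilution per CLSI in MHB, two-fold drug dilutions mixed with an equal volume of bacteria at about 1 × 10^6 CFU/mL. After 18 h at 37 °C, MIC taken as the lowest concentration with no visible growth; run in triplicate.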

[2] = antibiotic alone, unit not given
[3] = with D-11 at MICbc 4, unit not given
[4] = antibiotic + D-11 (MICb/MICbc 64/4)

With `CO[C@H]1[C@H](OC(=O)c2ccc(C)[nH]2)[C@H](O)[C@@H](Oc2ccc3c(O)c(NC(=O)c4c[nH]c(C(=O)Nc5c(O)c6ccc(O[C@H]7OC(C)(C)[C@@H](OC)[C@H](OC(=O)c8ccc(C)[nH]8)[C@@H]7O)c(C)c6oc5=O)c4C)c(=O)oc3c2C)OC1(C)C` [Coumermycin A1] the FICI (P. aeruginosa AUMC-Pa-1) was 0.039, the FICI (P. aeruginosa AUMC-Pa-2) was 0.094 and the MIC (P. aeruginosa ATCC27853; Pseudomonas aeruginosa, ATCC27853, 18 h, read-out: MICa: MIC of the antibiotic) was 8 µM. The FICI (P. aeruginosa ATCC27853; strain ATCC27853, antibiotic + D-11 (MICb/MICbc 32/4)) was 0.156, the “MICac: MIC of the antibiotic in the combination” value (“MICac: MIC of the antibiotic” for short) (P. aeruginosa ATCC27853; strain ATCC27853, with D-11 at MICbc 4, unit not given) was 0.5 and the MIC (P. aeruginosa PA14; Pseudomonas aeruginosa, PA14, 18 h, read-out: MICa: MIC of the antibiotic) was 8 µM. The FICI (P. aeruginosa PA14; strain PA14, antibiotic + D-11 (MICb/MICbc 128/4)) was 0.094, the “MICac: MIC of the antibiotic” value (P. aeruginosa PA14; strain PA14, with D-11 at MICbc 4, unit not given) was 0.5 and the MIC (P. aeruginosa NR-31041; Pseudomonas aeruginosa, NR31041, 18 h, read-out: MICa: MIC of the antibiotic) was 8 µM. For the same compound, the FICI (P. aeruginosa NR-31041; strain NR-31041, antibiotic + D-11 (MICb/MICbc 64/4)) was 0.078, the “MICac: MIC of the antibiotic” value (P. aeruginosa NR-31041; strain NR-31041, with D-11 at MICbc 4, unit not given) was 0.125 and the MIC (P. aeruginosa PAK; Pseudomonas aeruginosa, 18 h, read-out: MICa: MIC of the antibiotic) was 8 µM. The FICI (P. aeruginosa PAK; strain PAK, antibiotic + D-11 (MICb/MICbc 64/4)) was 0.125, the “MICac: MIC of the antibiotic” value (P. aeruginosa PAK; strain PAK, with D-11 at MICbc 4, unit not given) was 0.5 and the FICI (P. aeruginosa NR-31040; antibiotic + D-11 (MICb/MICbc 128/4)) was 0.281. The “MICa: MIC of the antibiotic” value (P. aeruginosa NR-31040; [2]) was 8, the “MICac: MIC of the antibiotic” value (P. aeruginosa NR-31040; [3]) was 2 and the MIC (P. aeruginosa AUMC-Pa-3; Pseudomonas aeruginosa, AUMCPA3, 18 h, read-out: MICa: MIC of the antibiotic) was 8 µM. The FICI (P. aeruginosa AUMC-Pa-3; strain AUMC-Pa-3, antibiotic + D-11 (MICb/MICbc 128/4)) was 0.035, the “MICac: MIC of the antibiotic” value (P. aeruginosa AUMC-Pa-3; strain AUMC-Pa-3, with D-11 at MICbc 4, unit not given) was 0.031 and the FICI (P. aeruginosa AUMC-Pa-6; [4]) was 0.313. For the same compound, the “MICa: MIC of the antibiotic” value (P. aeruginosa AUMC-Pa-6; [2]) was 8, the “MICac: MIC of the antibiotic” value (P. aeruginosa AUMC-Pa-6; [3]) was 2 and the MIC (P. aeruginosa AUMC-Pa-4; Pseudomonas aeruginosa, AUMCPA4, 18 h, read-out: MICa: MIC of the antibiotic) was 8 µM. For the same compound, the FICI (P. aeruginosa AUMC-Pa-4; strain AUMC-Pa-4, antibiotic + D-11 (MICb/MICbc 128/4)) was 0.094, the “MICac: MIC of the antibiotic” value (P. aeruginosa AUMC-Pa-4; strain AUMC-Pa-4, with D-11 at MICbc 4, unit not given) was 0.5 and the “reduction of the MICs” value (P. aeruginosa PAO1; PAO1, in the presence of 4 μM of D-11) was 512 fold. For the same compound, the MIC (P. aeruginosa PAO1; Pseudomonas aeruginosa, PAO1, 18 h, read-out: MICa: the MIC of antibiotics) was 8 µM, the FICI (P. aeruginosa PAO1; S3 Table, PAO1, antibiotic + 2 μM D-11) was 0.078 and the “MICac: the MIC for the antibiotic in the combination” value (P. aeruginosa PAO1; S3 Table, PAO1, with 2 μM D-11) was 0.125 µM. For the same compound, the “MICac: the MIC for the antibiotic in the combination” value (P. aeruginosa PAO1; S3 Table, PAO1, with 4 μM D-11) was 0.01562 µM, the “MICa: the MIC of antibiotics” value (P. aeruginosa PAO1; S3 Table, antibiotic alone, PAO1) was 8 µM and the FICI (P. aeruginosa AUMC-Pa-5; [4]) was 0.313. For the same compound, the “MICa: MIC of the antibiotic” value (P. aeruginosa AUMC-Pa-5; [2]) was 8, the “MICac: MIC of the antibiotic” value (P. aeruginosa AUMC-Pa-5; [3]) was 2 and the FICI (P. aeruginosa HM-214) was 0.281. It also gave an MIC ([1]; read-out: Antibiotic sensibility (MIC) of clinical P. aeruginosa isolate AUMC-Pa-1) of 8 µM, an MIC ([1]; read-out: Antibiotic sensibility (MIC) of clinical P. aeruginosa isolate AUMC-Pa-2) of 8 µM and an MIC ([1]; read-out: Antibiotic sensibility (MIC) of clinical P. aeruginosa isolate AUMC-Pa-3) of 8 µM. The MIC ([1]; read-out: Antibiotic sensibility (MIC) of clinical P. aeruginosa isolate AUMC-Pa-4) was 8 µM, the MIC ([1]; read-out: Antibiotic sensibility (MIC) of clinical P. aeruginosa isolate AUMC-Pa-5) was 8 µM and the MIC ([1]; read-out: Antibiotic sensibility (MIC) of clinical P. aeruginosa isolate AUMC-Pa-6) was 8 µM. It also gave an MIC ([1]; read-out: Antibiotic sensibility (MIC) of clinical P. aeruginosa isolate HM-214) of 8 µM, an MIC ([1]; read-out: Antibiotic sensibility (MIC) of clinical P. aeruginosa isolate NR-31040) of 8 µM and an MIC ([1]; read-out: Antibiotic sensibility (MIC) of clinical P. aeruginosa isolate NR-31041) of 8 µM.
